Legend:
intracranial pressure [1] = assay: Effect of i.v. injection of test compounds on intracranial pressure in rats; format: in vivo, rat (male SD-strain); details: rat, 0 minute = 100
Text: Male SD-strain rats weighing 500 to 800 g (each group consisting of 5 rats) were anesthetized with urethane. […] Intracranial pressure (i.e., cerebrospinal fluid pressure in the cisterna magna) was continuously monitored via a cannula inserted in the cisterna magna. The cannula was connected to a transducer, and recordings were made on graph paper.

Acute toxicity = details: in vivo, mouse, observed for a week
Experimental: The 50% lethal dose (LD50) of the test compound was calculated according to the Weil's method from the number of mice died a week after the administration.

intracranial pressure [2] = assay: Effect of p.o. administration of test compounds on intracranial pressure in rats; format: in vivo, rat (male SD-strain); details: rat, 8 mg/kg, 240 minutes, 0 minute = 100
Experimental: Male SD-strain rats weighing 500 to 800 g (each group consisting of 5 rats) were fasted for about 20 hours, and anesthetized with urethane. A suspension of a test compound in aqueous 0.5 w/v % carboxymethyl-cellulosewas administered orally to the rats. Then, the effect of the compound on the intracranial pressure was estimated in the same manner as described in Example 1.
Compound 4 (free base) listed in Example 1 was used in this experiment.

[3] = Therapeutic index (ratio of LD50 to minimum effective dose); format: in vivo; details: orally or intravenously
Text: Unlike the hypertonic solutions of glycerol or mannitol, the therapeutic effect of the propanol derivative (I) of the present invention is not ascribable to the cerebral dehydrating effect and, therefore, said derivative (I) can be used either orally or parenterally. The propanol derivative (I) may also be used for the treatment of prophylaxis of increased intracranial pressure during and after brain surgical operation. Moreover, the propanol derivative (I) may be used for improving impaired consciousness, nervous disturbance and subjective symptoms (e.g., headache, nausea, vomiting) which are attributed to the cerebral diseases such as those mentioned hereinbefore. Further, whereas it is known that cerebral edema induces a rise in intracranial pressure and increased intracranial pressure serves to cause a build-up of edema which in turn impairs cerebral circulation, the propanol derivative (I) can interrupt this vicious cycle of cerebral diseases because of its potent intracranial pressure-lowering effect and its ability to ameliorate the cerebral circulatory impairment. The toxicity of the propanol derivative (I) of the present invention is low.

[4] = test system: common carotid blood flow; assay: Effect of test compounds on common carotid blood flow in cats; format: in vivo; details: cat, right thyroid artery, 30 seconds after administration, baseline 24.1 ± 0.9 ml/minute
Experimental: A solution of a test compound in an aqueous 10 w/v % maltose solution was injected into the right thyroid artery of the cats. The common carotid artery blood flow was continuously monitored via the flow probe set at the common carotid artery. The flow probe was connected to an electromagnetic flow meter, and recordings were made on graph paper. The effect of the test compound on the common carotid blood flow was estimated 30 seconds after administration of the test compound.

[5] = test system: increased intracranial pressure; assay: Effect of i.v. injection on increased intracranial pressure (autologous blood injected into the brain) in rats; format: in vivo, rat (male SD-strain); details: rat, 0 minute = 100
Experimental: Male SD-strain rats weighing 500 to 800 g (each group consisting of 5 rats) were anesthetized with urethane. 0.03 ml of autologous blood were injected into the brain of the rats to induce an increase in intracranial pressure. The level of increased intracranial pressure in the rats was about twice as high as its initial level 120 to 180 minutes after injection of autologous blood and said increased intracranial pressure was maintained at an approximately same level thereafter. 180 minutes after injection of autologous blood, a solution of a test compound in an aqueous 5 w/v % mannitol solution was infused via the femoral vein of the rats at a rate of 0.2 ml/kg/minute for 40 minutes. Then, the effect of the test compound on the intracranial pressure was calculated according to the following formula: [formula]
Compound No. 4 listed in Example 1 was used in this experiment.

[6] = test system: increased intracranial pressure; assay: Effect of i.v. injection on increased intracranial pressure (autologous blood injected into the lateral ventricle) in rabbits; format: in vivo, rabbit (male); details: rabbit, 0 minute = 100
Experimental: Male rabbits weighing 2.8 to 3.2 kg (each group consisting of 6 rabbits) were anethetized with urethane. 0.1 to 0.2 ml of autologous blood were injected into the lateral ventricle of the rabbits to induce a rise in intracranial pressure. The level of intracranial pressure was about 2.3 times as high as its initial level 150 to 180 minutes after injection of autologous blood. 180 minutes after injection of autologous blood, a solution of a test compound in an aqueous 10 w/v % maltose solution was administered intravenously to the rabbits at a rate of 0.1 ml/kg/minute for 20 minutes. Then, the effect of the test compound on the intracranial pressure was calculated in the same manner as described in Example 2. [The initial intracranial pressure (i.e., the normal intracranial pressure measured before injection of autologous blood) was 75±2.6 mm H2 O, and the intracranial pressure measured before administration of test compound was 176±16 mm H2 O.]
Compound 4 listed in Example 1 was used in this experiment.

intracranial pressure [7] = assay: Effect of i.v. injection of test compounds on intracranial pressure in beagle dogs; format: in vivo, beagle dog (male); details: beagle dog, 1.0 mg/kg, 0 minute = 100
Experimental: A solution of a test compound in an aqueous 5 w/v % mannitol solution was infused via the saphenous vein of the beagle dogs at a rate of 0.1 ml/kg/minute for 40 minutes.

COc1cc(NC(C)=O)ccc1OCC(O)CN1CCN(c2cccc(C(F)(F)F)c2)CC1 (centres unmarked) [Compound 6, 1-(4-acetamido-2-methoxyphenoxy)-3-[4-(3-trifluoromethylphenyl)piperazino]-2-propanol]
Changes in intracranial pressure (intracranial pressure [1]; 1.0 mg/kg, 40 minutes): 97.0% | Changes in intracranial pressure (intracranial pressure [1]; 1.0 mg/kg, 60 minutes): 95.0% | Changes in intracranial pressure (intracranial pressure [1]; 1.0 mg/kg, 120 minutes): 90.5% | Changes in intracranial pressure (intracranial pressure [1]; 1.0 mg/kg, 180 minutes): 92.8%

COc1cc(NC(C)=O)ccc1OCC(O)CN1CCN(c2cccc(F)c2)CC1 (centres unmarked) [Compound 4 (free base), 1-(4-acetamido-2-methoxyphenoxy)-3-[4-(3-fluorophenyl)piperazino]-2-propanol]
LD50 at 168 h (Acute toxicity; po): 1550 mg/kg | Changes in intracranial pressure (intracranial pressure [2]): 75.6% | therapeutic index (50% lethal dose / minimum effective dose) [3]: not less than 400

COc1cc(NC(C)=O)ccc1OCC(O)CN1CCN(c2ccccc2C)CC1 (centres unmarked) [Compound 2, 1-(4-acetamido-2-methoxyphenoxy)-3-[4-(2-methylphenyl)piperazino]-2-propanol]
Changes in intracranial pressure (intracranial pressure [1]; 1.0 mg/kg, 40 minutes): 90.5% | Changes in intracranial pressure (intracranial pressure [1]; 1.0 mg/kg, 60 minutes): 90.7% | Changes in intracranial pressure (intracranial pressure [1]; 1.0 mg/kg, 120 minutes): 90.1% | Changes in intracranial pressure (intracranial pressure [1]; 1.0 mg/kg, 180 minutes): 91.5%

COc1cc(NC(C)=O)ccc1OCC(O)CN1CCN(c2ccccc2Cl)CC1 (centres unmarked) [Compound 3, 1-(4-acetamido-2-methoxyphenoxy)-3-[4-(2-chlorophenyl)piperazino]-2-propanol]
Changes in intracranial pressure (intracranial pressure [1]; 1.0 mg/kg, 40 minutes): 92.4% | Changes in intracranial pressure (intracranial pressure [1]; 1.0 mg/kg, 60 minutes): 87.5% | Changes in intracranial pressure (intracranial pressure [1]; 1.0 mg/kg, 120 minutes): 85.3% | Changes in intracranial pressure (intracranial pressure [1]; 1.0 mg/kg, 180 minutes): 85.0%

COc1ccc(Cc2nccc3cc(OC)c(OC)cc23)cc1OC [Papaverine, reference compound]
Increase in common carotid blood flow ([4]; 10 μg/kg): 2.6 ± 0.2 Δml/minute | Increase in common carotid blood flow ([4]; 25 μg/kg): 5.4 ± 0.6 Δml/minute

COc1cc(NC(C)=O)ccc1OCC(O)CN1CCN(c2ccccc2)CC1 (centres unmarked) [Compound 1, 1-(4-acetamido-2-methoxyphenoxy)-3-(4-phenylpiperazino)-2-propanol]
Changes in intracranial pressure (intracranial pressure [1]; 1.0 mg/kg, 40 minutes): 81.4% | Changes in intracranial pressure (intracranial pressure [1]; 1.0 mg/kg, 60 minutes): 85.5% | Changes in intracranial pressure (intracranial pressure [1]; 1.0 mg/kg, 120 minutes): 91.7% | Changes in intracranial pressure (intracranial pressure [1]; 1.0 mg/kg, 180 minutes): 92.8%

COc1cc(NC(C)=O)ccc1OCC(O)CN1CCN(c2ccccc2F)CC1 (centres unmarked) [Compound 5, 1-(4-acetamido-2-methoxyphenoxy)-3-[4-(2-fluorophenyl)piperazino]-2-propanol]
Changes in intracranial pressure (intracranial pressure [1]; 1.0 mg/kg, 40 minutes): 84.0% | Changes in intracranial pressure (intracranial pressure [1]; 1.0 mg/kg, 60 minutes): 84.0% | Changes in intracranial pressure (intracranial pressure [1]; 1.0 mg/kg, 120 minutes): 81.3% | Changes in intracranial pressure (intracranial pressure [1]; 1.0 mg/kg, 180 minutes): 87.5%

COc1cc(NC(C)=O)ccc1OCC(O)CN1CCN(c2cccc(F)c2)CC1.Cl (centres unmarked) [Compound 4, 1-(4-acetamido-2-methoxyphenoxy)-3-[4-(3-fluorophenyl)piperazino]-2-propanol hydrochloride]
LD50 at 168 h (Acute toxicity; iv): 280 mg/kg | Changes in intracranial pressure ([5]; 0.5 mg/kg, 40 minutes): 68.0% | Changes in intracranial pressure ([5]; 0.5 mg/kg, 60 minutes): 65.4% | Changes in intracranial pressure ([5]; 0.5 mg/kg, 120 minutes): 74.6% | Changes in intracranial pressure ([5]; 0.5 mg/kg, 180 minutes): 76.0% | Changes in intracranial pressure ([5]; 1.0 mg/kg, 40 minutes): 56.7% | Changes in intracranial pressure ([5]; 1.0 mg/kg, 60 minutes): 60.9% | Changes in intracranial pressure ([5]; 1.0 mg/kg, 120 minutes): 59.2% | Changes in intracranial pressure ([5]; 1.0 mg/kg, 180 minutes): 60.6% | Changes in intracranial pressure ([6]; 1 mg/kg, 20 minutes): 96.4% | Changes in intracranial pressure ([6]; 1 mg/kg, 60 minutes): 91.7% | Changes in intracranial pressure ([6]; 1 mg/kg, 120 minutes): 82.1% | Changes in intracranial pressure ([6]; 1 mg/kg, 180 minutes): 94.0% | Changes in intracranial pressure ([6]; 1 mg/kg, 240 minutes): 91.7% | Changes in intracranial pressure ([6]; 1 mg/kg, 300 minutes): 91.7% | Changes in intracranial pressure ([6]; 2 mg/kg, 20 minutes): 89.5% | Changes in intracranial pressure ([6]; 2 mg/kg, 60 minutes): 77.1% | Changes in intracranial pressure ([6]; 2 mg/kg, 120 minutes): 68.6% | Changes in intracranial pressure ([6]; 2 mg/kg, 180 minutes): 63.8% | Changes in intracranial pressure ([6]; 2 mg/kg, 240 minutes): 65.7% | Changes in intracranial pressure ([6]; 2 mg/kg, 300 minutes): 63.8% | Changes in intracranial pressure (intracranial pressure [1]; 0.5 mg/kg, 40 minutes): 84.3% | Changes in intracranial pressure (intracranial pressure [1]; 0.5 mg/kg, 60 minutes): 80.5% | Changes in intracranial pressure (intracranial pressure [1]; 0.5 mg/kg, 120 minutes): 86.5% | Changes in intracranial pressure (intracranial pressure [1]; 0.5 mg/kg, 180 minutes): 86.7% | Changes in intracranial pressure (intracranial pressure [1]; 1.0 mg/kg, 40 minutes): 82.6% | Changes in intracranial pressure (intracranial pressure [1]; 1.0 mg/kg, 60 minutes): 78.1% | Changes in intracranial pressure (intracranial pressure [1]; 1.0 mg/kg, 120 minutes): 82.2% | Changes in intracranial pressure (intracranial pressure [1]; 1.0 mg/kg, 180 minutes): 85.2% | Changes in intracranial pressure (intracranial pressure [1]; 2.0 mg/kg, 40 minutes): 81.5% | Changes in intracranial pressure (intracranial pressure [1]; 2.0 mg/kg, 60 minutes): 72.5% | Changes in intracranial pressure (intracranial pressure [1]; 2.0 mg/kg, 120 minutes): 74.6% | Changes in intracranial pressure (intracranial pressure [1]; 2.0 mg/kg, 180 minutes): 78.9% | Increase in common carotid blood flow ([4]; 1 μg/kg): 3.5 ± 0.8 Δml/minute | Increase in common carotid blood flow ([4]; 5 μg/kg): 6.1 ± 0.6 Δml/minute | Increase in common carotid blood flow ([4]; 10 μg/kg): 8.8 ± 1.3 Δml/minute | Changes in intracranial pressure (intracranial pressure [7]; 40 minutes): 80.3% | Changes in intracranial pressure (intracranial pressure [7]; 60 minutes): 75.6% | Changes in intracranial pressure (intracranial pressure [7]; 120 minutes): 82.5% | Changes in intracranial pressure (intracranial pressure [7]; 180 minutes): 83.1%

From patent publication US4307097A, “Method of reducing increased intracranial pressure” (Tanabe Seiyaku Co., Ltd., priority 1979, dated 1981)
